From US9586951B2 (FUJIFILM Corporation, priority 2013, dated 2017) come the findings set out here.

Each structure is given as a SMILES string. Counter-ions that a name gives are not always drawn.

For the test, the target named is T1, ATM (Homo sapiens, UniProt Q13315).
T1 construct: detecting phosphorylation of Chk2 in a human non-small cell lung cancer cell line NCI-H460 (ATCC company); host or cells: NCI-H460 human non-small cell lung cancer cells
T1 sequence (Q13315 whole entry): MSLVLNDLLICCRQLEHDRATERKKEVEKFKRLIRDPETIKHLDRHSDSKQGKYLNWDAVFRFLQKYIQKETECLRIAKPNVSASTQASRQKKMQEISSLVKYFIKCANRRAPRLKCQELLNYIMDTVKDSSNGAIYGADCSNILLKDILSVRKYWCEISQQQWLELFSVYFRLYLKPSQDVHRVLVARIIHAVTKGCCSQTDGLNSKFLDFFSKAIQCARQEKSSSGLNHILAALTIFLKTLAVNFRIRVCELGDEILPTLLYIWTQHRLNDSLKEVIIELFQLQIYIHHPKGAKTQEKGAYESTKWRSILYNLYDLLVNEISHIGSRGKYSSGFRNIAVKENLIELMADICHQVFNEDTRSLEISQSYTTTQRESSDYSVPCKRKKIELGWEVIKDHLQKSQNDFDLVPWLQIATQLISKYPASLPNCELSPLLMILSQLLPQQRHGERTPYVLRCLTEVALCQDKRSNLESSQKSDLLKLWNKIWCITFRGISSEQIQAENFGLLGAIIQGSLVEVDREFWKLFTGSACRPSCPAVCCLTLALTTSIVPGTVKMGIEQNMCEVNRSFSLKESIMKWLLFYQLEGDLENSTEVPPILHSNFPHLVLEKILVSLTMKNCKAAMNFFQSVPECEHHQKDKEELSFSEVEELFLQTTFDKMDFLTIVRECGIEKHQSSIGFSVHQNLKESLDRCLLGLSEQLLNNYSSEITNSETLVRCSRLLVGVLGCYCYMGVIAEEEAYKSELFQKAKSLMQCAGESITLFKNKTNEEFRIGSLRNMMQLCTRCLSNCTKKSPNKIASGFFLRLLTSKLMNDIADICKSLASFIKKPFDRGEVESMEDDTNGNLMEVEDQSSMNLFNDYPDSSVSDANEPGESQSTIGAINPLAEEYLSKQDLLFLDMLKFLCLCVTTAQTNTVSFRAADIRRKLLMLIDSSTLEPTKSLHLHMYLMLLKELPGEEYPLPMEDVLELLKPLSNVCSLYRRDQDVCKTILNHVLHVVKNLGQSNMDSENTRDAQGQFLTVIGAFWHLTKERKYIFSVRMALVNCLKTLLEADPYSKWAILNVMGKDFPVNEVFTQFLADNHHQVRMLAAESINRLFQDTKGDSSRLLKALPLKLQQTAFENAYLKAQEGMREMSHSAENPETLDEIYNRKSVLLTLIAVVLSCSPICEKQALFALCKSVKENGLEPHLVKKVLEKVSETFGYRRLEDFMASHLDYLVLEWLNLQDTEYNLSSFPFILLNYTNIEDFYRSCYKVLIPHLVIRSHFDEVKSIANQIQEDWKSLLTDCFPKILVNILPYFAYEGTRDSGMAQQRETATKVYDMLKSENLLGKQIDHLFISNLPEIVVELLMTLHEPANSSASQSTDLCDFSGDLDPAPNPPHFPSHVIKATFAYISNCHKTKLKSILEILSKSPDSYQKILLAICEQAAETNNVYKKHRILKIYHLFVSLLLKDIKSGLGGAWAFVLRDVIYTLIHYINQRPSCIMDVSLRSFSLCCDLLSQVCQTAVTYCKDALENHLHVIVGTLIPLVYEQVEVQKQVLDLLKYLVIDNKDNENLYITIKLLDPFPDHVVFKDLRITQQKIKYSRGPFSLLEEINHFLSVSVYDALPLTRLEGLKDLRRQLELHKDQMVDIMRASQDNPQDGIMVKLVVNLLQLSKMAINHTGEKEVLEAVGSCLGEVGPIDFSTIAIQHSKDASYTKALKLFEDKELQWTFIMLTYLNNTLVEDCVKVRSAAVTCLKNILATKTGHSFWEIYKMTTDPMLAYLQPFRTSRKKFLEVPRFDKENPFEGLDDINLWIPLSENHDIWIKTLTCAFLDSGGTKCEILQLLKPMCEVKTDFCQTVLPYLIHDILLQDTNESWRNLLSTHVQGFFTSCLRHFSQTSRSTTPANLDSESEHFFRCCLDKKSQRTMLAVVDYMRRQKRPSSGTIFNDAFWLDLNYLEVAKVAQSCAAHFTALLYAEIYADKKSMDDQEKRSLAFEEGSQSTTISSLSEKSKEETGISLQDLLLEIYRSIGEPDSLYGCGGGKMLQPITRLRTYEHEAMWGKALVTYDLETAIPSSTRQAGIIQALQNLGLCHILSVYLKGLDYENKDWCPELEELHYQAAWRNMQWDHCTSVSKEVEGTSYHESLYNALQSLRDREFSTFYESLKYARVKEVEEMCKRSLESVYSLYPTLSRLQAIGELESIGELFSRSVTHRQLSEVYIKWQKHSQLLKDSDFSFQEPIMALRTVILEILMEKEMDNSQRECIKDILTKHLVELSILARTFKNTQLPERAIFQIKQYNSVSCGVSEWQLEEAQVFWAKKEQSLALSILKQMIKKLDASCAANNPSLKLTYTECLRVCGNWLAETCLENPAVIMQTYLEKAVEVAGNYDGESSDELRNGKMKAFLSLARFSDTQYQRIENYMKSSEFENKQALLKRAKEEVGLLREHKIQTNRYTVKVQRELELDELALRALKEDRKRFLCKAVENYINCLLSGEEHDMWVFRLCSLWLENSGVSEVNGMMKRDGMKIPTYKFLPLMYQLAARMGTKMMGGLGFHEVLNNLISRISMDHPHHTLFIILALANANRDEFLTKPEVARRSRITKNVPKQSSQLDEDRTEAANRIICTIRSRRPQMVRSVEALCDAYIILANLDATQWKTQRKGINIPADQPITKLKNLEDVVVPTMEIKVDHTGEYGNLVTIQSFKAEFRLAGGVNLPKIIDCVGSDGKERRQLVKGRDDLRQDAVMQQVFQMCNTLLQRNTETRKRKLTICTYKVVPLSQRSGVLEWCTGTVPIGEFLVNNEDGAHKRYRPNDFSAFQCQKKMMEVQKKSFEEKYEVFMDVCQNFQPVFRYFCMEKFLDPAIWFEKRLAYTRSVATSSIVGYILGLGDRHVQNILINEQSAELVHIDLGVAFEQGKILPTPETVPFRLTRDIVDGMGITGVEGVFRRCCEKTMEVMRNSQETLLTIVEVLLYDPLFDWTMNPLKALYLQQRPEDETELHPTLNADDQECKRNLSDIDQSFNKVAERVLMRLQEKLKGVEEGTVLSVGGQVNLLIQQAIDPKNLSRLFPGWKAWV
The test can be described thus: ATM inhibition test (phosphorylation of Chk2 generated by ionizing radiation, AlphaScreen SureFire). The note with it: phosphorylated Chk2 in NCI-H460 cells, ionizing radiation 8Gy, 1 hour after test compound treatment; read-out: ATM inhibitory activity. The test is classed as cell-based. The method, then:
ATM inhibitory effects of a test compound were measured by detecting phosphorylation of Chk2 in a human non-small cell lung cancer cell line NCI-H460 (ATCC company). The level of phosphorylated Chk2 generated by an ionizing radiation was measured using AlphaScreen SureFire (TGR Biosciences).
The cells were seeded by 40000 cells per well in 96-well CellBIND® plates (Corning International Inc.), and incubated at 37° C. overnight in 5% CO2. […] 1 hour after a test compound treatment, half of the plates were irradiated with ionizing radiation 8Gy (Faxitron Bioptics, LLC, RX-650 type). The plates irradiated with ionizing radiation and the plates not being irradiated with ionizing radiation were incubated at 37° C. for 1 hour in 5% CO2. […] Subsequent operations were performed according to the instruction book of AlphaScreen SureFire. […] The inhibition ratio was calculated by the following equation. Inhibition ratio (%)=((signal of drug untreated wells in the plates irradiated with ionizing radiation−signal of drug treated wells in the plates irradiated with ionizing radiation)/(signal of drug untreated wells in the plates irradiated with ionizing radiation−signal of drug untreated wells in the plates not being irradiated with ionizing radiation))×100
For orientation: Bead proximity is the source of the signal in Alpha formats.
Turning to `O=c1cc(N2CCOCC2)cc(-c2cccc3c2Oc2ccc(NC4CCNCC4)cc2S3)[nH]1` [Example 4-9, 4-Morpholino-6-(8-(piperidin-4-ylamino)phenoxathiin-4-yl)pyridin-2(1H)-one], the IC50 fell in the range of 0.1 to 0.5 µM.
Turning to `CCOc1ccnc(CN2CCC(Nc3ccc4c(c3)Cc3cccc(-c5cc(N6CCOCC6)cc(=O)[nH]5)c3O4)CC2)c1` [Example 2-28-36, 6-(7-((1-((4-Ethoxypyridin-2-yl)methyl)piperidin-4-yl)amino)-9H-xanthen-4-yl)-4-morpholino pyridin-2(1H)-one], the IC50 lay within 0.1 to 0.5 µM.
The same measure for `CC(Nc1ccc2c(c1)Cc1cccc(-c3cc(N4CCOCC4)cc(=O)[nH]3)c1O2)c1ncc(CO)cn1` (centres unmarked) [Example 2-14-66, 6-(7-((1-(5-(Hydroxymethyl)pyrimidin-2-yl)ethyl)amino)-9H-xanthen-4-yl)-4-morpholino pyridin-2(1H)-one]: 0.5 to 2 µM.
In the case of `CC(CN1CCN(C(C)C)CC1)Nc1ccc2c(c1)Sc1cccc(-c3cc(N4CCOCC4)cc(=O)[nH]3)c1S2` (centres unmarked) [Example 1-13-14, 6-(7-((1-(4-Isopropylpiperazin-1-yl)propan-2-yl)amino)thianthren-1-yl)-4-morpholino pyridin-2(1H)-one], the IC50 was in the range of 0.1 to 0.5 µM.
The same measure for `Cc1cc(C)nc(CNc2ccc3c(c2)Cc2cccc(-c4cc(N5CCOCC5)cc(=O)[nH]4)c2O3)c1` [Example 2-14-15, 6-(7-(((4,6-Dimethylpyridin-2-yl)methyl)amino)-9H-xanthen-4-yl)-4-morpholino pyridin-2 (1H)-one]: 0.1 to 0.5 µM.
On to `CN(C)[C@H]1CC[C@H](N(C)c2ccc3c(c2)Cc2cccc(-c4cc(N5CCOCC5)cc(=O)[nH]4)c2O3)CC1` [Example 2-10, 6-(7-(((Trans)-4-(dimethylamino)cyclohexyl)(methyl)amino)-9H-xanthen-4-yl)-4-morpholinopyridin-2(1H)-one], for which the IC50 lay within 0.5 to 2 µM.
As for `CC1CC(Nc2ccc3c(c2)Cc2cccc(-c4cc(N5CCOCC5)cc(=O)[nH]4)c2O3)CCN1CCc1ccccc1` (centres unmarked) [Example 2-19-1, 6-(7-((2-Methyl-1-phenethylpiperidin-4-yl)amino)-9H-xanthen-4-yl)-4-morpholinopyridin-2(1H)-one], the IC50 lay in the range of 0.1 to 0.5 µM.
Regarding `CCCCN1CCCC(Nc2ccc3c(c2)Cc2cccc(-c4cc(N5CCOCC5)cc(=O)[nH]4)c2O3)C1` (centres unmarked) [Example 2-19-4, 6-(7-((1-Butylpiperidin-3-yl)amino)-9H-xanthen-4-yl)-4-morpholinopyridin-2(1H)-one], the IC50 lay within 0.1 to 0.5 µM.
On to `COc1cc(CNc2ccc3c(c2)Cc2cccc(-c4cc(N5CCOCC5)cc(=O)[nH]4)c2O3)ccn1` [Example 2-22-1, 6-(7-(((2-methoxypyridin-4-yl)methyl)amino)-9H-xanthen-4-yl)-4-morpholinopyridin-2(1H)-one], for which the IC50 is 0.1 to 0.5 µM.
For `Cn1cc(-c2cc(CNc3ccc4c(c3)Cc3cccc(-c5cc(N6CCOCC6)cc(=O)[nH]5)c3O4)ccn2)cn1` [Example 2-4, 6-(7-(((2-(1-methyl-1H-pyrazol-4-yl)pyridin-4-yl)methyl)amino)-9H-xanthen-4-yl)-4-morpholinopyridin-2(1H)-one], the IC50 was less than 0.1 µM.
With `COCc1ccc(CNc2ccc3c(c2)Cc2cccc(-c4cc(N5CCOCC5)cc(=O)[nH]4)c2O3)cn1` [Example 2-2-43, 6-(7-(((6-(Methoxymethyl)pyridin-3-yl)methyl)amino)-9H-xanthen-4-yl)-4-morpholino pyridin-2(1H)-one], the IC50 lay in the range of 0.1 to 0.5 µM.
Consider `CC(Nc1ccc2c(c1)Cc1cccc(-c3cc(N4CCOCC4)cc(=O)[nH]3)c1O2)c1cc(Cl)ncn1` (centres unmarked) [Example 2-14-59, 6-(7-((1-(6-Chloropyrimidin-4-yl)ethyl)amino)-9H-xanthen-4-yl)-4-morpholino pyridin-2(1H)-one], for which the IC50 is 0.1 to 0.5 µM.
With `O=c1cc(N2CCOCC2)cc(-c2cccc3c2Oc2ccc(NC4CCCN(CCc5ccccc5)CC4)cc2S3)[nH]1` (centres unmarked) [Example 4-6-2, 4-Morpholino-6-(8-((1-phenethylazepan-4-yl)amino)phenoxathiin-4-yl)pyridin-2(1H)-one], the IC50 fell in the range of 0.1 to 0.5 µM.
In the case of `Cc1ccc(C(C)Nc2ccc3c(c2)Sc2cccc(-c4cc(N5CCOCC5)cc(=O)[nH]4)c2S3)nc1` (single isomer, unassigned) [Example 1-12-143-2, 6-(7-((1-(5-methylpyridin-2-yl)ethyl)amino)thianthren-1-yl)-4-morpholinopyridin-2(1H)-one], the IC50 lay within 0.1 to 0.5 µM.
As for `O=c1cc(N2CCOCC2)cc(-c2cccc3c2Sc2ccc(NC4CCN(Cc5ccncc5)CC4)cc2S3)[nH]1` [Example 1-24-20, 4-Morpholino-6-(7-((1-(pyridin-4-ylmethyl)piperidin-4-yl)amino)thianthren-1-yl)pyridin-2 (1H)-one], the IC50 was in the range of 0.1 to 0.5 µM.
As to `COc1cncc(C(C)Nc2ccc3c(c2)Sc2cccc(-c4cc(N5CCOCC5)cc(=O)[nH]4)c2S3)c1` (single isomer, unassigned) [Example 1-12-145-2, 6-(7-((1-(5-methoxypyridin-3-yl)ethyl)amino)thianthren-1-yl)-4-morpholinopyridin-2(1H)-one], the IC50 is less than 0.1 µM.
As to `O=c1cc(N2CCOCC2)cc(-c2cccc3c2Sc2ccc(NC4CN(Cc5cccnc5)C4)cc2S3)[nH]1` [Example 1-24-21, 4-Morpholino-6-(7-((1-(pyridin-3-ylmethyl)azetidin-3-yl)amino)thianthren-1-yl)pyridin-2(1H)-one], the IC50 was in the range of 0.1 to 0.5 µM.
As for `CC(CNc1ccc2c(c1)Sc1cccc(-c3cc(N4CCOCC4)cc(=O)[nH]3)c1S2)N1CCOCC1` (single isomer, unassigned) [Example 1-9-2-2, 4-morpholino-6-(7-((2-morpholinopropyl)amino)thianthren-1-yl)pyridin-2(1H)-one], the IC50 was in the range of 0.1 to 0.5 µM.
As for `Cc1ccc(C(Nc2ccc3c(c2)Sc2cccc(-c4cc(N5CCOCC5)cc(=O)[nH]4)c2S3)C2CN(CCO)CCO2)nc1` (racemic) [Example 1-57-2, 6-(7-(((4-(2-Hydroxyethyl)morpholin-2-yl)(5-methylpyridin-2-yl)methyl)amino)thianthren-1-yl)-4-morpholinopyridin-2(1H)-one], the figure is less than 0.1 µM; as for `Cc1ccnc(C(CF)Nc2ccc3c(c2)Sc2cccc(-c4cc(N5CCOCC5)cc(=O)[nH]4)c2S3)c1` (centres unmarked) [Example 1-12-133, 6(7-((2-Fluoro-1-(4-methylpyridin-2-yl)ethyl)amino)thianthren-1-yl)-4-morpholino pyridin-2(1H)-one], 0.1 to 0.5 µM.
In the case of `O=c1cc(N2CCOCC2)cc(-c2nccc3c2Oc2ccc(NCc4cc(C5CC5)ccn4)cc2C3)[nH]1` [Example 2-41-6, 6-(7-(((4-Cyclopropylpyridin-2-yl)methyl)amino)-5H-chromeno[2,3-c]pyridin-1-yl)-4-morpliolino pyridin-2 (1H)-one], the IC50 was in the range of 0.1 to 0.5 µM.
Turning to `O=c1cc(N2CCOCC2)cc(-c2cccc3c2Oc2ccc(NCCc4cccnc4)cc2C3)[nH]1` [Example 2-12, 4-morpholino-6-(7-((2-(pyridin-3-yl)ethyl)amino)-9H-xanthen-4-yl)pyridin-2(1H)-one], the IC50 lay in the range of 0.1 to 0.5 µM.
As for `CCOC(=O)c1ccc(CNc2ccc3c(c2)Sc2cccc(-c4cc(N5CCOCC5)cc(=O)[nH]4)c2S3)nc1` [Example 1-12-112, Ethyl 6-(((6-(4-morpholino-6-oxo-1,6-dihydropyridin-2-yl)thianthren-2-yl)amino)methyl)nicotinate], the figure is 0.1 to 0.5 µM; as for `Nc1ccc2c(c1)Cc1cccc(-c3cc(N4CCOCC4)cc(=O)[nH]3)c1S2` [Example 3-1, 6-(7-amino-9H-thioxanthen-4-yl)-4-morpholinopyridin-2(1H)-one], 0.5 to 2 µM; as for `Cc1cccc(C(CCN2CCCCC2)Nc2ccc3c(c2)Sc2cccc(-c4cc(N5CCOCC5)cc(=O)[nH]4)c2S3)n1` (centres unmarked) [Example 1-34-3, 6-(7-((1-(6-Methylpyridin-2-yl)-3-(piperidin-1-yl)propyl)amino)thianthren-1-yl)-4-morpholino pyridin-2(1H)-one], less than 0.1 µM.
Regarding `CC(C)(C)OC(=O)n1cc(-c2cncc(CNc3ccc4c(c3)Sc3cccc(-c5cc(N6CCOCC6)cc(=O)[nH]5)c3S4)c2)cn1` [Example 1-44-6, tert-Butyl 4-(5-(((6-(4-morpholino-6-oxo-1,6-dihydropyridin-2-yl)thianthren-2-yl)amino)methyl)pyridin-3-yl)-1H-pyrazole-1-carboxylate], the IC50 is less than 0.1 µM.
In the case of `Cc1ccccc1CCN1CCC(Nc2ccc3c(c2)Cc2cccc(-c4cc(N5CCOCC5)cc(=O)[nH]4)c2O3)CC1` [Example 2-30-4, 6-(7-((1-(2-Methylphenethyl)piperidin-4-yl)amino)-9H-xanthen-4-yl)-4-morpholino pyridin-2 (1H)-one], the IC50 was 0.1 to 0.5 µM.
As to `CC(CN1CCN(Cc2ccccn2)CC1)Nc1ccc2c(c1)Sc1cccc(-c3cc(N4CCOCC4)cc(=O)[nH]3)c1S2` (centres unmarked) [Example 1-15-2, 4-Morpholino-6-(7-((1-(4-(pyridin-2-ylmethyl)piperazin-1-yl)propan-2-yl)amino)thianthren-1-yl)pyridin-2(1H)-one], the IC50 lay in the range of 0.1 to 0.5 µM.
As for `COc1ccc(C2c3cc(N)ccc3Oc3c2ccnc3-c2cc(N3CCOCC3)cc(=O)[nH]2)cc1` (centres unmarked) [Example 2-66, Hydrochloride of 6-(7-amino-5-(4-methoxyphenyl)-5H-chromeno[2,3-c]pyridin-1-yl)-4-morpholinopyridin-2(1H)-one], the figure is 0.1 to 0.5 µM.
